US20070078096A1, “Buffered drug formulations for transdermal electrotransport delivery” (priority 1997, published 2007)
Like-named read-outs stand apart in the source and are kept apart here. Non-standard residues stand in square brackets, D forms with d. Residues, ends and D or L forms follow the SMILES beside them. Orn = NCCC[C@H](N)C(=O)O

Assay: pKa, pI and charge distribution of buffers
Settings: for % salt: fraction of dipeptide carrying a net charge in aqueous solution at pH equal to pI
Source text: At the pI, three species coexist.
In an electric field these negative species move in the opposite direction of their positive associated counterions.
Choice of the dipeptide buffer will be on a case-by-case basis depending on the drug compound and the desired level of pH control and conductivity of the formulation.

Molecule	pka A	pI (Table 2)	% salt [%]	pI	pka B
NCCCC[C@H](N)C(=O)N[C@@H](Cc1cnc[nH]1)C(=O)O [Lys-His]	2.42	9.50	5		
N[C@@H](CC(=O)O)C(=O)N[C@@H](Cc1cnc[nH]1)C(=O)O [Asp-His] (H-Asp-His-OH)		4.90	3		
C[C@H](N)C(=O)N[C@@H](Cc1cnc[nH]1)C(=O)O [Ala-His] (H-Ala-His-OH)	2.42	7.55	22		
Gly-Gly-Gly-Gly-His (GGGGH; printed: Gly-Gly-Gly-Gly-His)				7.55	
NCC(O)CC[C@H](NC(=O)[C@@H](N)Cc1c[nH]cn1)C(=O)O (some centres unmarked) [His-Hydroxylysine]	3.05	8.75	17		
NC(=O)C[C@H](NC(=O)[C@@H](N)Cc1cnc[nH]1)C(=O)O [His-Asn] (H-His-Asn-OH)	2.62	6.95	22		
His-Gly-Gly				6.9	
CC(C)C[C@H](N)C(=O)N[C@@H](Cc1cnc[nH]1)C(=O)O [Leu-His] (H-Leu-His-OH)	2.42	7.50	24		
N[C@@H](Cc1cnc[nH]1)C(=O)N[C@@H](CO)C(=O)O [His-Ser] (H-His-Ser-OH)	2.65	6.95	22		
CSCC[C@H](NC(=O)[C@@H](N)Cc1cnc[nH]1)C(=O)O [His-Met] (H-His-Met-OH)	2.89	6.95	22		
N[C@@H](Cc1cnc[nH]1)C(=O)N[C@@H](Cc1c[nH]c2ccccc12)C(=O)O [His-Trp]	3.07	6.95	22		
His-Gly-Gly-Gly (HGGG; printed: His-Gly-Gly-Gly)				6.9	
NC(N)=NCCC[C@H](NC(=O)[C@@H](N)Cc1ccc(O)cc1)C(=O)O [Tyr-Arg]		8.40	17		
CC[C@H](C)[C@H](NC(=O)[C@@H](N)Cc1cnc[nH]1)C(=O)O [His-Isoleucine] (H-His-Ile-OH)	3.13	6.95	22		
O=C(O)[C@H](Cc1c[nH]cn1)NC(=O)[C@@H]1CC(O)CN1 (some centres unmarked) [Hydroxyproline-His]	2.42	7.45	25		
Cn1cncc1C[C@H](NC(=O)CCN)C(=O)O [Anserine]	2.64	8.27	10		
C[C@@H](O)[C@H](N)C(=O)N[C@@H](Cc1cnc[nH]1)C(=O)O [Thr-His] (H-Thr-His-OH)	2.42	7.15	39		
NCCC[C@H](NC(=O)[C@@H](N)Cc1c[nH]cn1)C(=O)O [His-Ornithine] (H-His-[Orn]-OH)	2.82	9.40	5		

Molecule	pka A	pI (Table 2)	% salt [%]	pI	pka B
CC(C)C[C@H](NC(=O)[C@@H](N)Cc1cnc[nH]1)C(=O)O [His-Leu] (H-His-Leu-OH)	3.10	6.95	22		
NCCC(=O)N[C@@H](Cc1cnc[nH]1)C(=O)O [Carnosine]		8.17	8		
N[C@@H](Cc1cnc[nH]1)C(=O)N[C@@H](Cc1cnc[nH]1)C(=O)O [His-His]	2.25	7.40	32		
NCCC[C@H](N)C(=O)N[C@@H](Cc1c[nH]cn1)C(=O)O [Ornithine-His]	2.42	9.20	3		
N[C@@H](CO)C(=O)N[C@@H](Cc1cnc[nH]1)C(=O)O [Ser-His] (H-Ser-His-OH)	2.42	7.20	36		
CC(C)[C@H](NC(=O)[C@@H](N)Cc1cnc[nH]1)C(=O)O [His-Val] (H-His-Val-OH)	3.18	6.95	22		
NCC(=O)N[C@@H](CC(=O)O)C(=O)O [Gly-Asp] (H-Gly-Asp-OH)		3.60	23		8.60
N[C@@H](Cc1ccc(O)cc1)C(=O)N[C@@H](Cc1cnc[nH]1)C(=O)O [Tyr-His] (H-Tyr-His-OH)		7.15	39		
NC(=O)CC[C@H](N)C(=O)N[C@@H](Cc1cnc[nH]1)C(=O)O [GIn-His] (H-Gln-His-OH)	2.42	7.20	36		
NC(N)=NCCC[C@H](N)C(=O)N[C@@H](CC(=O)O)C(=O)O [Arg-Asp] (H-Arg-Asp-OH)		6.08	2		
NCCCC[C@H](NC(=O)[C@@H](N)Cc1cnc[nH]1)C(=O)O [His-Lys] (H-His-Lys-OH)	3.05	9.40	5		
N[C@@H](Cc1cnc[nH]1)C(=O)N1CCC[C@H]1C(=O)O [His-Pro]	2.62	6.95	22		
NC(N)=NCCC[C@H](N)C(=O)N[C@@H](CCC(=O)O)C(=O)O [Arg-Glu] (H-Arg-Glu-OH)		6.06	3		
N[C@@H](Cc1cnc[nH]1)C(=O)N[C@@H](Cc1ccccc1)C(=O)O [His-Phe] (H-His-Phe-OH)	2.88	6.95	22		
NC(=O)C[C@H](N)C(=O)N[C@@H](Cc1cnc[nH]1)C(=O)O [Asn-His] (H-Asn-His-OH)	2.42	7.00	44		
O=C(O)C(Cc1cnc[nH]1)NC(=O)C1CCCN1 (centres unmarked) [Pro-His]	2.42	7.90	11		
N[C@@H](CC(=O)O)C(=O)N[C@@H](CC(=O)O)C(=O)O [Asp-Asp] (H-Asp-Asp-OH)		3.05	43		8.26
N[C@@H](Cc1cnc[nH]1)C(=O)N[C@@H](Cc1ccc(O)cc1)C(=O)O [His-Tyr] (H-His-Tyr-OH)		6.95	22		
